Results from US9012443B2 (Amgen Inc., priority 2011, dated 2015).
pIC50: −log10 of the molar value. Like-named read-outs stand apart in the source and are kept apart here.

Assays:
Format in all cases: cell-based
[1] = target: T1, Nav 1.7 (Homo sapiens (Human), UniProt Q15858); experiment: Nav 1.7 IWQ in vitro assay (IonWorks Quattro population patch-clamp); details: 293 cells stably transfected with Nav 1.7
Method in brief: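 Percent block, measured in duplicate, came from peak minus end-of-pulse current on the 26th −20 mV step, and IC50 was fitted against concentration. Stably transfected 293 cells were recorded in population patch-clamp mode before and after a single test concentration, which was added over 3–8 min while cells were unclamped.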

[2] = target: T1, Nav 1.7; experiment: Nav 1.7 in vitro PX assay (PatchXpress whole cell voltage clamp); details: 293 cells, human Nav1.7, partially inactivated state; read-out: Nav1.7 PX IC50 IP
Method in brief: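 Partially inactivated channel state (holding potential for 20–50% inactivation) probed in human Nav1.7-transfected 293 cells by automated patch clamp, test pulse −10 mV for 20 msec.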

[3] = target: Nav 1.5 (Homo sapiens (Human), UniProt Q14524); experiment: Nav 1.5 in vitro PX assay (PatchXpress whole cell voltage clamp); details: 293 cells stably transfected with Nav 1.5
Chain of Nav 1.5 (Q14524 whole entry): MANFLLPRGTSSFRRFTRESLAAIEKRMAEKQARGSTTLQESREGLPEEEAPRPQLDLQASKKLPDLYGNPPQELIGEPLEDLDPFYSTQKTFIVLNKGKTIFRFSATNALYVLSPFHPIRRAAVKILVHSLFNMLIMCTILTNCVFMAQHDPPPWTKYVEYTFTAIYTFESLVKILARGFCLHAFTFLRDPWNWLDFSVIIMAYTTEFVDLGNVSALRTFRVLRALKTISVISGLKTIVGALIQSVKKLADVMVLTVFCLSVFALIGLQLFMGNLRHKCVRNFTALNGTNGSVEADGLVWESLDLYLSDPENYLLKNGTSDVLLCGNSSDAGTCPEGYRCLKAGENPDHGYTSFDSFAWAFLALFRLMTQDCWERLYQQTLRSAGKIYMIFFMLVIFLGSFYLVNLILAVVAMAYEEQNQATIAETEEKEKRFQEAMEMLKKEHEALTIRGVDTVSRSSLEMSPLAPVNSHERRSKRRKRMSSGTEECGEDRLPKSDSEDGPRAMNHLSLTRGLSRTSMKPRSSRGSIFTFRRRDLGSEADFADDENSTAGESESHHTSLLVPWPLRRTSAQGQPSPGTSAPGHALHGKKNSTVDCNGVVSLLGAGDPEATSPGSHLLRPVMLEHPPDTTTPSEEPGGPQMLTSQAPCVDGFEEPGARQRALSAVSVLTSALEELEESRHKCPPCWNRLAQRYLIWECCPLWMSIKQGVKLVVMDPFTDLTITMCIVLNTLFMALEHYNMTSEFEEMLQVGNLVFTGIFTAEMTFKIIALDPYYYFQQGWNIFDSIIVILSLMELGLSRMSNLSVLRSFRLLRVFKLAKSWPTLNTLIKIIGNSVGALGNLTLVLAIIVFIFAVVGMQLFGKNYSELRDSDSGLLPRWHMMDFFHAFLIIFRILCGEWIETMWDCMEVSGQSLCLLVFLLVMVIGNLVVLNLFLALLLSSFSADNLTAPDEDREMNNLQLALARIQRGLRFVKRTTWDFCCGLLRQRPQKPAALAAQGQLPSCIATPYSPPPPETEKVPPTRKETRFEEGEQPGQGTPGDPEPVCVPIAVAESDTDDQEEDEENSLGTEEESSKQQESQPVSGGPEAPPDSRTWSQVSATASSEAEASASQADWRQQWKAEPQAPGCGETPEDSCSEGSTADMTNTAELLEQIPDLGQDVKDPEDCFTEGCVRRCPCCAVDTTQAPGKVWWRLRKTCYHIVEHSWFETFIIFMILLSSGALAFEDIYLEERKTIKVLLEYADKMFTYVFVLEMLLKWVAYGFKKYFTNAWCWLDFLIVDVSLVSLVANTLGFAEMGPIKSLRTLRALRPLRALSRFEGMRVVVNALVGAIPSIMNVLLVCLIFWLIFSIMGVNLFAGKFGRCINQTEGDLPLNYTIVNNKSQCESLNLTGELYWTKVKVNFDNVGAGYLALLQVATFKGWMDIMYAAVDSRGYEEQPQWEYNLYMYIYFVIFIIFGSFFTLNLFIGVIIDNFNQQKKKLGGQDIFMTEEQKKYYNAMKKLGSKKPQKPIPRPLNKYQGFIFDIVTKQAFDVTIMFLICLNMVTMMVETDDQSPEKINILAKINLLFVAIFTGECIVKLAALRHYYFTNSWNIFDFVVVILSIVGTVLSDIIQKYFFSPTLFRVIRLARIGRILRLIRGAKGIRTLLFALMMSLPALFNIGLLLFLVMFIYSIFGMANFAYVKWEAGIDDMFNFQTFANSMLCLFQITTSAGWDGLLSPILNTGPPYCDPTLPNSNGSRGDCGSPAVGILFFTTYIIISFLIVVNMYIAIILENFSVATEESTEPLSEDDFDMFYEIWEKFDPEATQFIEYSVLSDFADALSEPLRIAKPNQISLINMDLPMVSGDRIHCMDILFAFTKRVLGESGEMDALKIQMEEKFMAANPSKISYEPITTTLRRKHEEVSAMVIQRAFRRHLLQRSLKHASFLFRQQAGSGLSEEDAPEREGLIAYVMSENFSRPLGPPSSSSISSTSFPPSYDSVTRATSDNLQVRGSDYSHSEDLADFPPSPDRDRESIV
Method in brief: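 HEK293 cells stably expressing Nav 1.5, whole-cell voltage clamp held at −50 mV; 20 msec test pulses to 0 mV at 0.1 Hz, each preceded by a step to −120 mV.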

[4] = second part of table, read-out: Nav1.7 IWQ IC50 IP
[5] = second part of table, read-out: Nav1.5 PX IC50
[6] = first part of table, read-out: Nav 1.7 IWQ IC50
[7] = first part of table, read-out: Nav 1.5 PX IC50

T1 sequence (Q15858 whole entry): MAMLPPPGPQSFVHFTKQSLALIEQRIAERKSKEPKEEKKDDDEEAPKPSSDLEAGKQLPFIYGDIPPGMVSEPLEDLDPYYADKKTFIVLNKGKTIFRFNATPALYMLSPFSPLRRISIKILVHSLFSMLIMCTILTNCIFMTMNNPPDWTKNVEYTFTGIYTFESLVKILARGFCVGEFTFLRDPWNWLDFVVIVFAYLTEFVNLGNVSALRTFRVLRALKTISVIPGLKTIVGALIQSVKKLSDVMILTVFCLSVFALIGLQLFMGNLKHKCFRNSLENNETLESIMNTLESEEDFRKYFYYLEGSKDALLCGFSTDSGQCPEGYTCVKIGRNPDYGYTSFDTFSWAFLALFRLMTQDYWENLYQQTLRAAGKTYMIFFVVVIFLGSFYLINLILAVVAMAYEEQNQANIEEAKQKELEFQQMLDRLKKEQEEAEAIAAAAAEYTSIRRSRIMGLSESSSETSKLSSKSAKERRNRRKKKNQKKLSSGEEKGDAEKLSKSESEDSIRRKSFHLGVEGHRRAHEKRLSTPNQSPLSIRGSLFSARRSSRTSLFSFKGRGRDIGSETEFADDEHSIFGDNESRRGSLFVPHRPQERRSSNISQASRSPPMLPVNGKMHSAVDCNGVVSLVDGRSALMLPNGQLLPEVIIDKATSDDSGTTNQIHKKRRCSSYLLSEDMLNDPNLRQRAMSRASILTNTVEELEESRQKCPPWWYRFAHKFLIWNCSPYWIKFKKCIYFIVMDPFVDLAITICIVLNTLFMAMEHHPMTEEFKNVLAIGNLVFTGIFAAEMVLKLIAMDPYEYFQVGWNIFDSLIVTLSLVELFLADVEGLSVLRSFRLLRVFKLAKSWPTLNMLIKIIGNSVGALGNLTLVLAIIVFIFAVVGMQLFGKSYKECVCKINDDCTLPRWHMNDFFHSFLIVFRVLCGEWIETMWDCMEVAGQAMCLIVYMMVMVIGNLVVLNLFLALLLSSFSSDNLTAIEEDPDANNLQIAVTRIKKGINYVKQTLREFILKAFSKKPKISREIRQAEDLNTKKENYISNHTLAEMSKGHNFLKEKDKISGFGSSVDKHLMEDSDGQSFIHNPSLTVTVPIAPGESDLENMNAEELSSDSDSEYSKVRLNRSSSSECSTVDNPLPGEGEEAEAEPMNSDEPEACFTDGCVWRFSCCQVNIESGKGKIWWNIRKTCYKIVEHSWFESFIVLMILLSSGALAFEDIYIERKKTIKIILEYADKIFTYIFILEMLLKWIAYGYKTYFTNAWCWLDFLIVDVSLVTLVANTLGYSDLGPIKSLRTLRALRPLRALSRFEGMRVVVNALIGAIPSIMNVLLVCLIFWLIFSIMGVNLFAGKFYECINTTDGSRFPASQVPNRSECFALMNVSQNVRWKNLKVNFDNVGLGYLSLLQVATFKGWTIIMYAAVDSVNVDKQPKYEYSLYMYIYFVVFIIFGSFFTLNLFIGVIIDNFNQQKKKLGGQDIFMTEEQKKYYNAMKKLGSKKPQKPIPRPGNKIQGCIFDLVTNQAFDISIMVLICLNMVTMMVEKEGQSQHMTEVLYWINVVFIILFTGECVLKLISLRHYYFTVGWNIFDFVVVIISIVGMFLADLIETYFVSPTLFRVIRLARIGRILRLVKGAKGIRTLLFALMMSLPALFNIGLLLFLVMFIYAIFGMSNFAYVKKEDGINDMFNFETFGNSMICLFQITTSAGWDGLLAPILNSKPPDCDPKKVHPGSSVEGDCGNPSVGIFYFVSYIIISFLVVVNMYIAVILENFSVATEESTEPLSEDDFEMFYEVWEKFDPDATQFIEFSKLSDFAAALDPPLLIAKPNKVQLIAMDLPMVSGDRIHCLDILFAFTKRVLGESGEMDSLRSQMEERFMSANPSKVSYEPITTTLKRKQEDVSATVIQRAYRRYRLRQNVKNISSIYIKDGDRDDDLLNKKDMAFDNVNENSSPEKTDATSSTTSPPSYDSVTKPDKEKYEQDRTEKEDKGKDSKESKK

## COc1cc(C(F)(F)F)ccc1-c1ncnc2cc(S(=O)(=O)Nc3nccs3)ccc12 [Example 261, 4-(2-methoxy-4-(trifluoromethyl)phenyl)-N-(thiazol-2-yl)quinazoline-7-sulfonamide]
[1]; [4]
  pIC50: 8.00
[2]
  pIC50: 6.70
[3]; [5]
  pIC50: < 4.52

## COc1cc(C(F)(F)F)ccc1-c1ccnc2cc(S(=O)(=O)Nc3nccs3)ccc12 [Example 276, 4-(2-METHOXY-4-(TRIFLUOROMETHYL)PHENYL)-N-(THIAZOL-2-YL)QUINOLINE-7-SULFONAMIDE]
[1]; [4]
  pIC50: 7.30
[2]
  pIC50: 6.46
[3]; [5]
  pIC50: 4.91

## O=S(=O)(Nc1ncns1)c1ccc2c(-c3ccc(Cl)cc3-c3cn[nH]c3)cccc2c1 [Example 27, 5-(4-CHLORO-2-(1H-PYRAZOL-4-YL)PHENYL)-N-(1,2,4-THIADIAZOL-5-YL)NAPHTHALENE-2 SULFONAMIDE]
[1]; [6]
  pIC50: 7.70
[3]; [7]
  pIC50: < 4.52

## O=S(=O)(Nc1ncns1)c1ccc2c(-c3ccc(C(F)(F)F)cc3-c3cn[nH]c3)nccc2c1 [Example 55, 1-(2-(1H-PYRAZOL-4-YL)-4-(TRIFLUOROMETHYL)PHENYL)-N-(1,2,4-THIADIAZOL-5-YL)ISOQUINOLINE-6-SULFONAMIDE]
[1]; [6]
  pIC50: 8.00
[3]; [7]
  pIC50: < 4.52

## O=S(=O)(Nc1ncns1)c1ccc2c(-c3ccc(C(F)(F)F)cc3Br)cccc2c1 [Example 23]
[1]; [6]
  pIC50: 6.96
[3]; [7]
  pIC50: 4.68

## O=S(=O)(Nc1ncns1)c1ccc2c(-c3ccccc3)cccc2c1 [Example 9]
[1]; [6]
  pIC50: 6.34
[3]; [7]
  pIC50: 4.62

## O=S(=O)(Nc1ncns1)c1ccc2c(-c3ccc(C(F)(F)F)cc3Br)nccc2c1 [Example 50, 1-(2-BROMO-4-(TRIFLUOROMETHYL)PHENYL)-N-(1,2,4-THIADIAZOL-5-YL)ISOQUINOLINE-6-SULFONAMIDE]
[1]; [6]
  pIC50: 7.52
[3]; [7]
  pIC50: < 4.52

## COc1cc(C(F)(F)F)ccc1-c1nccc2cc(S(=O)(=O)Nc3ncns3)ccc12 [Example 195, 1-(2-METHOXY-4-(TRIFLUOROMETHYL)PHENYL)-N-(1,2,4-THIADIAZOL-5-YL)ISOQUINOLINE-6-SULFONAMIDE]
[1]; [4]
  pIC50: 8.00
[2]
  pIC50: 6.87
[3]; [5]
  pIC50: < 4.52

## Cn1nccc1-c1cc(C(F)(F)F)ccc1-c1cccc2cc(S(=O)(=O)Nc3nccs3)ccc12 [Example 47]
[1]; [6]
  pIC50: 6.57
[3]; [7]
  pIC50: 5.24

## O=S(=O)(Nc1ncns1)c1ccc2c(-c3ccc(C(F)(F)F)cc3Cl)cccc2c1 [Example 29]
[1]; [6]
  pIC50: 7.30
[3]; [7]
  pIC50: < 4.52

## COc1cc(-c2cccc(F)c2)ccc1-c1nccc2cc(S(=O)(=O)Nc3ccncn3)ccc12 [Example 199, 1-(3′-FLUORO-3-METHOXY-[1,1′-BIPHENYL]-4-YL)-N-(PYRIMIDIN-4-YL)ISOQUINOLINE-6-SULFONAMIDE 2,2,2-TRIFLUOROACETATE]
[1]; [4]
  pIC50: 7.70
[2]
  pIC50: 6.81
[3]; [5]
  pIC50: < 4.52

## O=S(=O)(Nc1ncns1)c1ccc2c(-c3ccc(F)cc3Br)cccc2c1 [Example 3]
[1]; [6]
  pIC50: 7.05
[3]; [7]
  pIC50: 4.62

## N#Cc1cc(C(F)(F)F)ccc1-c1cccc2cc(S(=O)(=O)Nc3ncns3)ccc12 [Example 22]
[1]; [6]
  pIC50: 7.40
[3]; [7]
  pIC50: < 4.52

## NC(=O)c1cc(C(F)(F)F)ccc1-c1cccc2cc(S(=O)(=O)Nc3ncns3)ccc12 [Example 32]
[1]; [6]
  pIC50: 6.77
[3]; [7]
  pIC50: < 4.52

## Cn1nccc1-c1cc(Cl)ccc1-c1cccc2cc(S(=O)(=O)Nc3ncns3)ccc12 [Example 25]
[1]; [6]
  pIC50: 7.30
[3]; [7]
  pIC50: < 4.52
